The results in this text go back to ChEMBL document CHEMBL1240359, “Micafungin concentrations from brain tissue and pancreatic pseudocyst fluid” (Antimicrob Agents Chemother, 2010).

Series [1] can be described thus: Drug level in rabbit brain at 1 mg/kg/day, iv for 8 days measured 30 mins after last dose. Type of series: ADME, organism-based, Oryctolagus cuniculus. More on the design: route intravenous. The conditions noted are these: read-out: Drug uptake.
The test system of another series is Candida albicans. In words: Antimicrobial activity against Candida albicans infected in neutropenic rabbit model of disseminated candidiasis assessed as reduction in brain microbial burden at 0.25 to 2 mg/kg/day for 10 days. It is filed as functional, organism-based.
A short description of series [2]: Drug level in brain of patient with invasive candidiasis measured 23 hrs post last dose by HPLC. To be noted: human, read-out: Drug uptake. Type of series: ADME, tissue-based.
A short description of series [3]: Drug level in rabbit kidney at 0.5 to 2 mg/kg/day, iv for 8 days measured 30 mins after last dose. Type of series: ADME, organism-based, Oryctolagus cuniculus. More on the design: route intravenous. The conditions noted are these: read-out: Drug uptake.
A short description of series [4]: Drug level in rabbit brain at 0.5 mg/kg/day, iv for 8 days measured 30 mins after last dose. Type of series: ADME, organism-based, Oryctolagus cuniculus. More on the design: route intravenous. The conditions noted are these: read-out: Drug uptake.
Series [5] can be described thus: Drug level in rabbit brain at 2 mg/kg/day, iv for 8 days measured 30 mins after last dose. It is filed as ADME, organism-based, Oryctolagus cuniculus. Also on record: route intravenous. The conditions noted are these: read-out: Drug uptake.
Series [6] is described as follows: Drug level in pancreatic pseudocyst fluid of patient with invasive candidiasis measured 24 hrs post last dose by HPLC. Type of series: ADME. To be noted: human, read-out: Drug uptake.
A short description of series [7]: Drug level in rabbit lung at 0.5 to 2 mg/kg/day, iv for 8 days measured 30 mins after last dose. Type of series: ADME, organism-based, Oryctolagus cuniculus. Also on record: route intravenous. To be noted: read-out: Drug uptake.
The nature of series [8]: Plasma concentration in patient with invasive candidiasis measured 23 hrs post last dose by HPLC. Type of series: ADME, organism-based. To be noted: human.

Activity calls are given as the source filed them. The calls are words filed in the database; no cut-off is given here. Starred links: 1 amine or outer side, 2 acyl side, 3 side chain; linkers in the order of their positions; H or OH if unused. Positions of bridges follow the written chain, without caps; N, C: chain ends. Non-standard residues stand in square brackets, D forms with d. Residues, ends and D or L forms follow the SMILES beside them. *: point of attachment. hTyr(3S-OH,4S-OH,3'-OSO3H) = N[C@H](C(=O)O)[C@H](O)[C@@H](O)c1ccc(O)c(OS(=O)(=O)O)c1; Orn(4R-OH,5R-OH) = O=C([C@H](C[C@@H](O)[C@@H](O)N[*:3])N[*:1])[*:2]; Pro(3S-OH,4S-Me) = C[C@H]1CN[C@H](C(=O)O)[C@H]1O; X1 = CCCCCOc1ccc(-c2cc(-c3ccc(C(=O)*)cc3)no2)cc1; Gln(3R-OH) = NC(=O)C[C@@H](O)[C@H](N)C(=O)O; Hyp = O=C(O)[C@@H]1C[C@@H](O)CN1

As to `CCCCCOc1ccc(-c2cc(-c3ccc(C(=O)N[C@H]4C[C@@H](O)[C@@H](O)NC(=O)[C@@H]5[C@@H](O)[C@@H](C)CN5C(=O)[C@H]([C@H](O)CC(N)=O)NC(=O)[C@H]([C@H](O)[C@@H](O)c5ccc(O)c(OS(=O)(=O)O)c5)NC(=O)[C@@H]5C[C@@H](O)CN5C(=O)[C@H]([C@@H](C)O)NC4=O)cc3)no2)cc1` [MICAFUNGIN] (X1-[Orn(4R-OH,5R-OH)]T[Hyp][hTyr(3S-OH,4S-OH,3'-OSO3H)][Gln(3R-OH)][Pro(3S-OH,4S-Me)]; lactam 1-C), the concentration at 0.5 h in series [1] turned out to be 100 ng/g; in series [3] it was 1400 ng/g; in series [4], 80 ng/g; in [5], 180 ng/g; in series [7] it was 2260 ng/g. Besides, the inhibition result in the series with Candida albicans was “Active”. In addition, the figures for the concentration at 23 h in [2] and in series [8] were 280 ng/mL and 1580 ng/mL, respectively. For the same molecule, the concentration at 24 h in [6] came out at 380 ng/mL.
